No end group written: not given here.
Columns and labels:
[1] = system: DSS-induced acute inflammatory bowel disease; experiment: Therapeutic effect in animal model of DSS-induced acute inflammatory bowel disease; assay type: in vivo, ICR mice
Method: In order to confirm the therapeutic effect of the synthesized peptide in animals, acute inflammatory bowel disease was induced with DSS in ICR mice (Orient Bio), and simultaneously, the synthesized peptide was injected thereto. Inflammation was induced in mice using 5% DSS as drinking water for 7 days, and simultaneously, the synthesized peptide was IP-injected thereto. The normal group (Normal, n=6) was not treated with DSS, and in the untreated group (No treatment, n=6), only DSS was used, and no drug was injected. The positive control group (SAHA, Sigma-Aldrich, 25 mg/kg, n=6), the immunomodulatory control group (Anti-TNF-a antibody, Pfizer, 1 mg/kg, n=6), and the peptide of SEQ ID NO: 1 (50 mg/kg, n=6) were injected once daily. After 7 days, mice were sacrificed by CO2 hyperventilation, the colons were collected, and the lengths thereof were compared. Additionally, the tissue was fixed and processed to prepare a paraffin block, and H&E staining was performed to determine whether the intestinal tissue was damaged.

[2] = IVIS distribution of Cy5.5-labeled peptide in DSS-induced acute inflammatory bowel disease model; assay type: in vivo; details: IP injection, DSS mice, 30, 60 and 180 minutes, FIG. 7
Excerpt: In order to confirm distribution of the synthesized peptide to the colon, inflammation was induced in mice using 5% DSS as drinking water for 7 days, after which the Cy5.5-labeled peptide of SEQ ID NO: 1 was IP-injected thereto.

[3] = system: colonic epithelial cells (Caco-2 cell); experiment: Proliferation of colonic epithelial cells (CCK-8); assay type: cell-based; details: 100 μM, 3rd day, FIG. 5
Method: In order to confirm the proliferation and migration in colonic epithelial cells (Caco-2 cell, ATCC® HTB-37™) by the peptide according to the present invention, the cells were dispensed in an amount of 5×10^3 cells/well in a 96-well plate and then cultured for 24 hours in DMEM (Dulbecco's Modified Eagle Medium, Gibco). The peptides (SEQ ID NOS: 1, 2, and 3) were dispensed at a concentration of 100 μM in the cells and then cultured for up to 3 days at intervals of 1 day. The cell count was measured using a CCK-8 (Cell Counting Kit-8, CK04, Dojindo Lab.). After 1, 2, and 3 days, the medium containing the peptide was removed, 10% of a CCK-8 solution was added to fresh DMEM, and 100 μl thereof was then dispensed. After 1 hour and 30 minutes, absorbance was measured at 450 nm.

ZO-1 = experiment: Real-time RT-PCR of wound-healing marker ZO-1 in colonic epithelial cells; assay type: cell-based; details: Caco-2 cells; 50 and 100 μg/ml; 3 days; FIG. 4
Method: (§1) In order to confirm the expression level of the wound-healing marker in colonic epithelial cells (Caco-2 cell, ATCC® HTB-37™) by the peptide according to the present invention, colonic epithelial cells were dispensed in an amount of 5×10^6 cells/well in a 6-well plate and then cultured for 24 hours in DMEM (Dulbecco's Modified Eagle Medium, Gibco). The cells were treated with the peptides of SEQ ID NOS: 1, 2, and 3 at concentrations of 50 and 100 μg/ml and then cultured for up to 3 days. After 3 days, the cells were harvested and the gene expression levels of E-cadherin protein, which is highly expressed in colonic epithelial cells, and ZO-1 protein, which is highly expressed at the tight junction between colonic epithelial cells, were measured through real-time RT-PCR.
(§2) RNA was extracted from the obtained cells using TRIzol, and cDNA was synthesized using a kit from Thermo Scientific (cat. No. K1641). The same amount of cDNA was amplified by 40 cycles at 95° C.-60° C. using a SYBR green PCR master mix and a StepOnePlus™ Real-Time PCR System available from Applied Biosystems, and the ΔΔct values of individual groups were compared. The nucleotide sequences of the PCR primers used for amplification of each gene are as follows.

type VII collagen [4] = target: T1, type VII collagen (Homo sapiens, UniProt Q02388); experiment: Slot blotting, selectivity to collagen types: type VII (Experimental Example 2); assay type: binding; details: for peptide concentration at which binding to type VII collagen was observed: peptide at 5, 10, 25, 50 and 100 μg/mL, FIG. 3
T1 construct: purchased MyBioSource, Inc. MBS2018615
T1 sequence (Q02388 17-2944): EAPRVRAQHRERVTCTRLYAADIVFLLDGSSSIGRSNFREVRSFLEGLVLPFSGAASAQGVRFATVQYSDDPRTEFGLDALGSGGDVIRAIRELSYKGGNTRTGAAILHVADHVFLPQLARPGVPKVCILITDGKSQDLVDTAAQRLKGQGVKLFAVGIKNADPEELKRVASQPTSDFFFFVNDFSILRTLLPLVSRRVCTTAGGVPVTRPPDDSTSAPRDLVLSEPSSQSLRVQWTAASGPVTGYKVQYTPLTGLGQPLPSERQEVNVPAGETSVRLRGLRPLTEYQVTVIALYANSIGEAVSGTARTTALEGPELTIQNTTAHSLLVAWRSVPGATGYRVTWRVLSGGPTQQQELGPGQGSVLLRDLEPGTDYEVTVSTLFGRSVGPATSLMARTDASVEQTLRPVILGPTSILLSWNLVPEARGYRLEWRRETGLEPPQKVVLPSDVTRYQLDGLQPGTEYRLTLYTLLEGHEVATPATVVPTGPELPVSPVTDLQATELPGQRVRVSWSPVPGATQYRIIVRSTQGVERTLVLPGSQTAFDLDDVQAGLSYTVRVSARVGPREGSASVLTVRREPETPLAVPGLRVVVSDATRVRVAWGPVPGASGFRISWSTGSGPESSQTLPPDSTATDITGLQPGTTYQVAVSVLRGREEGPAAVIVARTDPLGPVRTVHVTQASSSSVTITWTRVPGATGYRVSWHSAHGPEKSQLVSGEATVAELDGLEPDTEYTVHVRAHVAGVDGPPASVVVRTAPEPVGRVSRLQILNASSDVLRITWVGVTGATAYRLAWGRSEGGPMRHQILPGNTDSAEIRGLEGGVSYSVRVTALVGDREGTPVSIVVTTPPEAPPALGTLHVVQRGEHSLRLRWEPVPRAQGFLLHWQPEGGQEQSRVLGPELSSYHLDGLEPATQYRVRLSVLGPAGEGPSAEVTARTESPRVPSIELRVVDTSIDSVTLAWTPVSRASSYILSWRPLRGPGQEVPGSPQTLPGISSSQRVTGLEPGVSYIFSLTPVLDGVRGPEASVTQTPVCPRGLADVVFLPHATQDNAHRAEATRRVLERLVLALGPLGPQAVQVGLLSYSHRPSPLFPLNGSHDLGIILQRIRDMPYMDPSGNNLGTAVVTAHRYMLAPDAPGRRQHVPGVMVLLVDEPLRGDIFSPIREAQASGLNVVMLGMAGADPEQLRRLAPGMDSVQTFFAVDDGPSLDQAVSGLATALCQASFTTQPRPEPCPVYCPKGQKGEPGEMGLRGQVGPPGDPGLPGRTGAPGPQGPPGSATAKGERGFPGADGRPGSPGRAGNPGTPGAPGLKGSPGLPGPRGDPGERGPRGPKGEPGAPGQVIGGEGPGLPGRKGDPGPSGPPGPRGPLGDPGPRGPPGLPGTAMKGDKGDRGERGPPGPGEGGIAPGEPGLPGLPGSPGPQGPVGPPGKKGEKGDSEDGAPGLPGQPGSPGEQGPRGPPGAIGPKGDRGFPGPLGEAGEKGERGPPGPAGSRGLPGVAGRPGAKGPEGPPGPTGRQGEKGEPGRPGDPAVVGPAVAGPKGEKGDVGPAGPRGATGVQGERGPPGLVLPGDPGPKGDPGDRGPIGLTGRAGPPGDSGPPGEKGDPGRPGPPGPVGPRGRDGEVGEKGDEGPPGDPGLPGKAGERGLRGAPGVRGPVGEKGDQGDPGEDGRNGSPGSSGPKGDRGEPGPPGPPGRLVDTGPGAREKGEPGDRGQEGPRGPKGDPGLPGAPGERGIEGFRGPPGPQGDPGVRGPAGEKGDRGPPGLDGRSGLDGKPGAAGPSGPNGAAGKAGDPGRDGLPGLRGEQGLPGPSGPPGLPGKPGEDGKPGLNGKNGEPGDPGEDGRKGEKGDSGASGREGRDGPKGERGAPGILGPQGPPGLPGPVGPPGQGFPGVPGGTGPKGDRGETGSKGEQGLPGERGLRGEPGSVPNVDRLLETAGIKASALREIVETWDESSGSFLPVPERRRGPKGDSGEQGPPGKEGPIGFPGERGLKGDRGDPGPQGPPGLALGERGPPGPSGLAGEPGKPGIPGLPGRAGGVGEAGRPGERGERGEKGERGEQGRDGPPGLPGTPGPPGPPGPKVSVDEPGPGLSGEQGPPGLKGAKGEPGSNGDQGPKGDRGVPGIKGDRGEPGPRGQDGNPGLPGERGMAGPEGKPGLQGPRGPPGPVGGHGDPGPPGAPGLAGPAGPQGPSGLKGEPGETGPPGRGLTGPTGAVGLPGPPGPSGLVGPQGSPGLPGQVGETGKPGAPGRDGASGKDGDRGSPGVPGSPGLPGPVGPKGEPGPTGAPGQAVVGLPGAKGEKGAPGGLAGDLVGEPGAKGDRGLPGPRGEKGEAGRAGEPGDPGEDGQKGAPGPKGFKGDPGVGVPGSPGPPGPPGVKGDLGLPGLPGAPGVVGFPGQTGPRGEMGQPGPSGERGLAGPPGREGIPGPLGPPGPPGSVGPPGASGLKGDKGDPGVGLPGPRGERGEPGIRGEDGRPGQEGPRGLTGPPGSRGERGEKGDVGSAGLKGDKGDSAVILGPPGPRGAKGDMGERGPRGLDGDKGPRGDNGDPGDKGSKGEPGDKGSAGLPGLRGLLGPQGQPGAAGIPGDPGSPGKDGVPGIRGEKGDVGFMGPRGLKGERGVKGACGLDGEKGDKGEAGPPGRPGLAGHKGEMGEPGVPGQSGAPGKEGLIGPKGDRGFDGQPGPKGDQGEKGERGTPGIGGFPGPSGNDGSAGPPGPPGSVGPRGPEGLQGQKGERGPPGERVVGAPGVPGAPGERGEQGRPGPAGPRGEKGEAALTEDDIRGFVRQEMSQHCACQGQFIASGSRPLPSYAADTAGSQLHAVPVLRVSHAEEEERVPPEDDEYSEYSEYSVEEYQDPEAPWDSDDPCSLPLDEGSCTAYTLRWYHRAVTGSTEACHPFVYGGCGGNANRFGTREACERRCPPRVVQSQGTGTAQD
Method: (§3) In order to confirm the selectivity of peptides of SEQ ID NOS: 1 to 3 to collagen types, slot blotting was performed for types I, IV and VII collagen. The NC membrane was activated with TBST, and the peptides of SEQ ID NOS: 1, 2 and 3 were placed in each well at different concentrations (5, 10, 25, 50, and 100 μg/mL) and allowed to bind to the NC membrane in a vacuum for 2 hours. A 1% solution of each of types I, IV and VII collagen (MyBioSource, Inc., San Diego, CA, USA, MBS2018615) was added to the peptide-bound membrane and allowed to bind to the membrane in a vacuum for 2 hours. The membrane was washed with TBST, and the membrane to which the peptides and types I, IV, and VII collagen were attached was allowed to react with a primary rabbit anti-human type VII collagen antibody (MyBioSource, Inc., San Diego, CA, USA, MBS2004594) at a dilution ratio of 1:800 and with a secondary antibody goat anti-rabbit Ig G (BETHYL Lab., Montgomery, TX, USA, A90-116P) at a dilution ratio of 1:5000. The reacted membrane was washed with TBST, and a chemiluminescence test was performed using WEST-one.

type VII collagen [5] = target: T1, type VII collagen; experiment: Slot blotting, binding ability to type VII collagen (Experimental Example 1); details: peptide at 5, 10 and 20 μg/mL, FIG. 2
Method: Slot blotting was performed to confirm the ability of the peptides of SEQ ID NOS: 1 and 3 to bind to type VII collagen. The NC membrane was activated with TBST, and the peptides of SEQ ID NOS: 1 and 3 were placed in each well at different concentrations (5, 10, and 20 μg/mL) and allowed to bind to the NC membrane in a vacuum for 2 hours. A 1% solution of type VII collagen (MyBioSource, Inc., San Diego, CA, USA, MBS2018615) was added to the peptide-bound membrane and allowed to bind to the membrane in a vacuum for 2 hours. After washing the membrane with TBST, the membrane to which the peptide and type VII collagen were attached was allowed to react with a primary rabbit anti-human type VII collagen antibody (MyBioSource, Inc., San Diego, CA, USA, MBS2004594) at a dilution ratio of 1:800 and with a secondary antibody goat anti-rabbit Ig G (BETHYL Lab., Montgomery, TX, USA, A90-116P) at a dilution ratio of 1:5000. The reacted membrane was washed with TBST, and a chemiluminescence test was performed using WEST-one. Based on the results of measurement of the ability of the peptide to bind to type VII collagen depending on the peptide concentration, when the concentration of the peptide of SEQ ID NO: 1 was 10 μg/mL or more or the concentration of the peptide of SEQ ID NO: 3 was 5 μg/mL or more, the ability thereof to bind to type VII collagen was confirmed (FIG. 2).

type IV collagen = experiment: Slot blotting, selectivity to collagen types: type IV (Experimental Example 2); assay type: binding; details: peptide up to 100 μg/mL, FIG. 3
Method: as §3

type I collagen = target: T2, type I collagen (Homo sapiens, UniProt P02452+P08123); experiment: Slot blotting, selectivity to collagen types: type I (Experimental Example 2); assay type: binding; details: peptide at 5, 10, 25, 50 and 100 μg/mL, FIG. 3
T2 construct: purchased MyBioSource, Inc
T2 sequence (P02452 162-1218): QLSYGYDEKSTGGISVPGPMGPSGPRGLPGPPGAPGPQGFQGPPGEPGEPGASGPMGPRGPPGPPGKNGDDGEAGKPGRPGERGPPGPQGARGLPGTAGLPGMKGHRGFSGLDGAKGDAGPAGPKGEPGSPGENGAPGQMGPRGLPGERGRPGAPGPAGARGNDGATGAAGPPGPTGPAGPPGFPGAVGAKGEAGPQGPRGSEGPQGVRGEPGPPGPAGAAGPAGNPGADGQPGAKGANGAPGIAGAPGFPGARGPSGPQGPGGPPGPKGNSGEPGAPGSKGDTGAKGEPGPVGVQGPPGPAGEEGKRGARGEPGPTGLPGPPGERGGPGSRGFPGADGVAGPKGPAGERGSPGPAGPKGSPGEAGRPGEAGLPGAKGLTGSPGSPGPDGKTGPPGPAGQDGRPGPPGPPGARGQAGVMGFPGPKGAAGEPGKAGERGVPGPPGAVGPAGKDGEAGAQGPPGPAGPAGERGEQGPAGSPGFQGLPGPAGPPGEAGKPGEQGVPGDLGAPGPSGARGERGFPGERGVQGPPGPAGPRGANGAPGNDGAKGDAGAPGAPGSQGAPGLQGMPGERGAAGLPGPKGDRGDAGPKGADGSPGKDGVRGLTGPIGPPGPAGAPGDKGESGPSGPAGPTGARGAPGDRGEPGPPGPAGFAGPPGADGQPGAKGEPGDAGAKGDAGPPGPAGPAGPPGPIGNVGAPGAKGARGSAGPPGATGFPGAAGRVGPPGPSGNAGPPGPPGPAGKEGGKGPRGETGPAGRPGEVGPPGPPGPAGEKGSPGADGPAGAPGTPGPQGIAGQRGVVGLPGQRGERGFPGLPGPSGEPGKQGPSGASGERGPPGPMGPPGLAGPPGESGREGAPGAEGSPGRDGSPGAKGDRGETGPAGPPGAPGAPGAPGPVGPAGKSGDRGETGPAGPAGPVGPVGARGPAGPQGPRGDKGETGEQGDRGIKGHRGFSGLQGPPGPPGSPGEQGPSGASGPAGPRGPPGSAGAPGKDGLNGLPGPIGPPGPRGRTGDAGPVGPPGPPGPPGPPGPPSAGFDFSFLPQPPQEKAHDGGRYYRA
T2 sequence (P08123 80-1119): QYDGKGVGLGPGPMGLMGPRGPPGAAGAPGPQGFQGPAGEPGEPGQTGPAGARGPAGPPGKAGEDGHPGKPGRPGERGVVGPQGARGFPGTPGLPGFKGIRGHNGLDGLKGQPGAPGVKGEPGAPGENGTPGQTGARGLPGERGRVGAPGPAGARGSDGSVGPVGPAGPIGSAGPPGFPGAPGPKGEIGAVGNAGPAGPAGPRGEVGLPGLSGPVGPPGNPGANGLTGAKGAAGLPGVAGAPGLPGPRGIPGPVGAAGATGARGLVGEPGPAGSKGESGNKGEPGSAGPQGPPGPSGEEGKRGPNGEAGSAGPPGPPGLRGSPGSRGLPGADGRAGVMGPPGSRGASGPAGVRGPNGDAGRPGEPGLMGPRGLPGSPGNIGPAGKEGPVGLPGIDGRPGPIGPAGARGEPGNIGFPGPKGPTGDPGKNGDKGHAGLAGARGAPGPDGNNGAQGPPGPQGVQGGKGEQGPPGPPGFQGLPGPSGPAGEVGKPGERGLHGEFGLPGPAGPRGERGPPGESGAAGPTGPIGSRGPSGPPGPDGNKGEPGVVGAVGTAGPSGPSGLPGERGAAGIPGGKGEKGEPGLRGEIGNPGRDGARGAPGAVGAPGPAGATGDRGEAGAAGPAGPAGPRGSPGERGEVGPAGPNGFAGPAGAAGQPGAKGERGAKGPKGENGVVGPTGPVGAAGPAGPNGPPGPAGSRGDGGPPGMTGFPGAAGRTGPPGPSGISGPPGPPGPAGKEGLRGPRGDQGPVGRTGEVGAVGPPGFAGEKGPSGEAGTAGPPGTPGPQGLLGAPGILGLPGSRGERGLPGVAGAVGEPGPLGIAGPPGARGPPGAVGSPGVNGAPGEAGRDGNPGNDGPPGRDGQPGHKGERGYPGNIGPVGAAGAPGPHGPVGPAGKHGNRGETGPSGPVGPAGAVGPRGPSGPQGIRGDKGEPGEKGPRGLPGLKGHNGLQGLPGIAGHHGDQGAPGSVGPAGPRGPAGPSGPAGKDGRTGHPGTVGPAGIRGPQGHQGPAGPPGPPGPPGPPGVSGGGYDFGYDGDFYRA
Method: as §3

Caco-2 cells = experiment: Scratch migration of colonic epithelial cells; assay type: cell-based; details: Caco-2 scratch, 100 μM, FIG. 6; for migration area: 2nd day; for cell migration compared to cells not treated with the peptide: up to 48 hours
Method: In order to measure cell migration ability, Caco-2 cells (1×10^6 cells) were placed in a 6-well plate and cultured in DMEM supplemented with 10% fetal bovine serum (FBS) and 1% antibiotic-antimycotic solution (Gibco, Grand Island, N.Y., USA). The cells were washed with PBS and allowed to stand overnight in a medium containing 2% FBS. The central portion of the cell layer was scratched using a sterile 200 μl plastic pipette tip. The scratched cell layer was washed twice with PBS to remove unadhered cells. Each of the peptides of SEQ ID NOS: […] at a concentration of 100 μM to the medium, followed by culture for up to 48 hours. The extent of cell migration toward the center from the scratched edges was measured using an Olympus CKX41 inverted microscope (magnification: ×20).

E-cadherin = experiment: Real-time RT-PCR of wound-healing marker E-cadherin in colonic epithelial cells; assay type: cell-based; details: Caco-2 cells; 50 and 100 μg/ml; 3 days; FIG. 4
Method: as §1, §2

integrin beta 1 = target: T3, integrin beta 1 (Mus musculus, UniProt P09055); experiment: Confocal co-localization of Cy5.5-labeled peptide with integrin beta 1 in colon tissue; assay type: in vivo, mice; details: 1 hour after injection, FIG. 11
T3 construct: from tissue; host or cells: colon of mice with DSS-induced colitis
Excerpt: In order to confirm co-localization of synthesized peptide to the colon, inflammation was induced in mice using 5% DSS in drinking water for 7 days, followed by the cy5.5-labeled peptide of SEQ ID NO: 1 was […] thereto. An hour after injection, each mouse was sacrificed and the colon tissue was isolated for analysis. Excised colons were fixed with 4% paraformaldehyde, and made frozen tissue block with Tissue-Tek® O.C.T. compound (4583, Sakura). Frozen tissue block was sectioned using clinical cryostat (CM1950, Leica) and placed on microscope slides.
Each sectioned tissue slides were stained for immunofluorescence. In brief, sectioned slides were permeabilized with 0.5% Triton X-100 (9036-19-5, Sigma-Aldrich) in PBS for 10 min. Next, 5% BSA in PBS were treated 30 minutes for blocking, followed by overnight incubation of anti-integrin beta 1 diluted in blocking buffer. After washing the slides, Alexa Fluor 488 conjugated anti-mouse secondary antibody (A-11001, Thermo Fisher Scientific) was diluted and incubated for an hour, and DAPI staining. Slides were mounted for imaging in confocal microscopy (LSM700, Carl Zeiss).

[6] = system: DSS-induced chronic inflammatory bowel disease; experiment: Therapeutic effect in animal model of DSS-induced chronic inflammatory bowel disease; assay type: in vivo, ICR mice
Method: In order to confirm the therapeutic effect of the synthesized peptide in animals, chronic inflammatory bowel disease was induced with DSS in ICR mice (Orient Bio). 1.5% DSS was used as drinking water for 7 days, water not containing DSS was provided for the next 7 days, and 1.5% DSS was used as drinking water for the next 7 days (FIG. 9A). Thereafter, the peptide of SEQ ID NO: 1 was administered through SC injection. The normal group (Normal, n=9) was not treated with DSS, and the untreated group (Untreated, n=9) was treated only with DSS, and no drug was injected. The positive control group (Infliximab, 5 mg/kg, n=9) and the peptide of SEQ ID NO: 1 (30 mg/kg, n=9) were injected once daily for 14 days. 28 days after the start of DSS administration, the animals were sacrificed by CO2 hyperventilation, the colons were collected, and the lengths thereof were compared. Additionally, the tissue was fixed and processed to prepare a paraffin block, and H&E staining was performed to determine whether the intestinal tissue was damaged.

## O=C(CCCCCCC(=O)Nc1ccccc1)NO [SAHA]
[1]; 5% DSS 7 days, IP once daily, SEQ ID NO: 1 50 mg/kg, SAHA 25 mg/kg, antibody 1 mg/kg, p<0.05 vs untreated, FIG. 8
  colon length: maintained the colon length
[1]; acute DSS model, FIG. 8 part c
  inflammatory cells in the intestinal mucosa (H&E histology): significantly decreased
  villi structure (H&E histology): villi structure was maintained well

## Cy5.5 [reference compound]
[2]
  fluorescence in small intestine and colon (IVIS): almost no fluorescence was observed at 180 minutes

## LTEFPLRMRDWLKN (Human osteonectin 160-173) [SEQ ID NO: 3]
[3]
  cell proliferation rate compared to the control group (cells not treated with the peptide): 51%
ZO-1
  gene expression of ZO-1: increased with an increase in the concentration of the peptide
Type VII collagen [4]
  selectivity to type VII collagen versus types I and IV collagen: higher selectivity to type VII collagen
  peptide concentration at which binding to type VII collagen was observed: at least 10 μg/mL
Type VII collagen [5]
  peptide concentration at which the ability to bind to type VII collagen was confirmed: ≥ 5 µg/mL
Type IV collagen
  binding to type IV collagen: did not bind
Type I collagen
  peptide concentration at which binding to type I collagen was observed: 100 µg/mL
Caco-2 cells
  migration area: 56%
  cell migration compared to cells not treated with the peptide: increased cell migration
E-cadherin
  gene expression of E-cadherin: increased with an increase in the concentration of the peptide

## RPRYYLYKHAYFYPHLKRFP (human bone sialoprpotein II 41-60) [SEQ ID NO: 2, Human bone sialoprotein II 41-60]
[3]
  cell proliferation rate compared to the control group (cells not treated with the peptide): 56%
ZO-1
  gene expression of ZO-1: increased with an increase in the concentration of the peptide
Type VII collagen [4]
  selectivity to type VII collagen versus types I and IV collagen: higher selectivity to type VII collagen
  peptide concentration at which binding to type VII collagen was observed: at least 20 μg/mL
Type IV collagen
  binding to type IV collagen: did not bind
Type I collagen
  peptide concentration at which binding to type I collagen was observed: 50 µg/mL
Caco-2 cells
  migration area: 75%
  cell migration compared to cells not treated with the peptide: increased cell migration
E-cadherin
  gene expression of E-cadherin: increased with an increase in the concentration of the peptide

## YGLRSKSKKFRRPDIQYPDAT-NH2 (C-terminus assumed) [SEQ ID NO: 1]
[2]
  fluorescence in small intestine and colon (IVIS): red fluorescence was constantly observed in the small intestine and colon from the initial 30 minutes to 180 minutes
Integrin beta 1; 5% DSS 7 days
  localization of peptide in DSS-induced mouse colon: detected in colon tissue
Integrin beta 1
  localization of peptide in normal colon: does not show any localization

## infliximab
[6]; FIG. 9G
  inflammatory cells in the intestinal mucosa (H&E histology): inflammatory cells in the intestinal mucosa were observed
  villi structure (H&E histology): some improvement compared to the untreated group, but villous damage
[6]; SEQ ID NO: 1 30 mg/kg SC, infliximab 5 mg/kg, once daily 14 days, p<0.05 vs untreated, FIG. 9D
  colon length: maintained the colon length

Source: patent publication US12545704B2, “Peptide for treating inflammation and wounds” (NIBEC CO., LTD., priority 2019, dated 2026)
